# Laboratory results taken from the Kinase Knowledgebase extract (Sharma et al. 2016).
# Biological target: ROCK2 (human) (UniProt O75116)
# Assay: Assessment of ROCK2 Kinase Activity
# ROCK2 (human), sequence (O75116 whole entry, looked up): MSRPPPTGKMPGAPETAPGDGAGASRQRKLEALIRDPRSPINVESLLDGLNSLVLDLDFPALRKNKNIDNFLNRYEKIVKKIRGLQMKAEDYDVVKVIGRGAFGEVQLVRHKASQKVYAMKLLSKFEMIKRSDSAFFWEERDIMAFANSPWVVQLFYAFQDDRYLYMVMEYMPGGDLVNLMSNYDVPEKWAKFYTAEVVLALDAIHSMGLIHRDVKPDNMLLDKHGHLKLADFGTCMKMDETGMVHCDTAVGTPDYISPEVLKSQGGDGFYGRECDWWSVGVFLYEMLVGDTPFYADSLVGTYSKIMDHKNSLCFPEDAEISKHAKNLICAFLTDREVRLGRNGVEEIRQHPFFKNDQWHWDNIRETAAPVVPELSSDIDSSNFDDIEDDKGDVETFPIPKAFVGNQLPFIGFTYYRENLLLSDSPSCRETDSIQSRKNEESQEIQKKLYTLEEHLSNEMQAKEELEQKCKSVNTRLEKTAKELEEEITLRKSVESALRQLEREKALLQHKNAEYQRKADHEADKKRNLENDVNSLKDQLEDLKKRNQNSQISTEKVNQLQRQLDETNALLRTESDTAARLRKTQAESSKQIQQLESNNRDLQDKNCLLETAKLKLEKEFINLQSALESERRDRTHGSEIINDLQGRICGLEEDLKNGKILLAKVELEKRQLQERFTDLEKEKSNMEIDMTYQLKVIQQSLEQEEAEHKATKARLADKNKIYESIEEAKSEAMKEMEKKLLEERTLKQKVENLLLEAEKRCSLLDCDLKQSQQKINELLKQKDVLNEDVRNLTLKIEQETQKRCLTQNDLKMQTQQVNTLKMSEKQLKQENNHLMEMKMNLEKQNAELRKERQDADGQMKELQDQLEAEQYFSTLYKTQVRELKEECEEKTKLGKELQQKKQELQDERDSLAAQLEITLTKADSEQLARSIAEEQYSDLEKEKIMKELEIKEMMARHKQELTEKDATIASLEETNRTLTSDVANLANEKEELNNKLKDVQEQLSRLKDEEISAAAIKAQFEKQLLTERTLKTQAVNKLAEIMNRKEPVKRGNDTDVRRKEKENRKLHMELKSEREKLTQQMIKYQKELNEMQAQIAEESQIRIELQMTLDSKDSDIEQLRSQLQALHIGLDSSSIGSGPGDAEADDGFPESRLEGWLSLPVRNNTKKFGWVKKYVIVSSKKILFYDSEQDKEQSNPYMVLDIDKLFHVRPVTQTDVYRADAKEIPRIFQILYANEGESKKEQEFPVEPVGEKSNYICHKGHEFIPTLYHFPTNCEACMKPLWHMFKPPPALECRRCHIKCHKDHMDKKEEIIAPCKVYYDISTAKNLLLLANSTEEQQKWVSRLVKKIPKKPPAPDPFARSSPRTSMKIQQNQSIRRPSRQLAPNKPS
row,IC50 [nM],Compound
1,≤ 1000,N[C@@H](Cc1ccc(Cl)cc1)C(=O)N1CCC(Oc2cc3cc[nH]c(=O)c3cc2Cl)CC1
2,≤ 1000,O=c1[nH]ccc2cc(O[C@@H]3CCN(Cc4ccccc4)C3)c(Cl)cc12
3,≤ 1000,CCCNC(=O)CN1CCC(Oc2cc3cc[nH]c(=O)c3cc2Cl)CC1
4,≤ 1000,Cc1cc2c(=O)[nH]ccc2cc1OC[C@@H]1CCNC1
5,≤ 1000,Cc1cc2c(=O)[nH]ccc2cc1O[C@H]1CCNC1
6,≤ 1000,O=C([C@@H]1CCCN1)N1CCC(Oc2cc3cc[nH]c(=O)c3cc2Cl)CC1

# More lines, now with the values behind:
row,Compound,IC50 [nM]
1,NCC(=O)N1CCC(Oc2ccc3c(=O)[nH]ccc3c2)CC1,≤ 1000
2,CN(C)CC(=O)N1CCC(Oc2cc3cc[nH]c(=O)c3cc2Cl)CC1,≤ 1000
3,O=c1[nH]ccc2cc(OC3CNC3)c(Cl)cc12,≤ 1000
4,C[C@@H](N)C(=O)N1CCC(Oc2cc3cc[nH]c(=O)c3cc2Cl)CC1,≤ 1000
5,O=c1[nH]ccc2cc(OC3CCCNCC3)c(Cl)cc12 (configuration not stated),≤ 1000
6,Cc1cc2c(=O)[nH]ccc2cc1OC1CCCNCC1 (configuration not stated),≤ 1000
